Values quoted from earlier work as cited in patent publication US20240409577A1, “FORMATION OF AMIDINES AND INTRAMOLECULAR REACTION THEREOF” (priority 2023, published 2024).

Settings: acid used for the imidazolone transformation

OC(C(F)(F)F)C(F)(F)F [HFIP, hexafluoroisopropanol]
pKa: 8.3
